Read-outs that look alike come from different tables or passages of the source.

The nature of data set [1]: Cytotoxicity, ATP-Lite, Fa2N-4 immortalized human hepatocytes. It is filed as cell-based. To be noted: Fa2N-4 immortalized human hepatocytes. As for the experimental part: (§1) Fa2N-4 immortalized human hepatocytes (Xenotech) or HREC cells were grown to subconfluency in wells of a 96-well plate and exposed to different concentrations of compounds for 24 h after which the cells were washed and the media and compounds replaced. The cells were returned to the incubator for another 24 h. The extent of cell death (cell lysis) was determined by ATP-Lite reagent (Perkin-Elmer).

The next data set has as its system parental CHO-K1 cells. The data set is described as follows: Parental cAMP counter assay (cells lacking APJ). The class given is cell-based. To be noted: Cricetulus griseus. The procedure: To identify small-molecule antagonists of the apelin receptor (APJ) we interrogated the SBP compound file of ~425,000 compounds using CHO-k1-AGTRL1 cells overexpressing human APJ and a competitive immunoassay of intracellular cAMP [59]. The compound file was screened at a concentration of 10 μM. For all 333 plates assayed, the average Z-factor = 0.68 and the average S/B = 8.2, indicating a robust assay performance. […] There were 2550 compounds that met this criterion, representing a hit rate of ~0.6%. […] Included in this hit set was a series of aminoquinolines, exemplified by compound 1 (Fig 1B). […] As part of an initial hit-validation strategy, these compounds and three other commercially available analogs were purchased for further testing. The purity and identify of all compounds were confirmed by NMR and LC-MS, and they were subsequently retested in a battery of cell-based assays of APJ function and counter screens. […] (Fig 1D).
(§2) PathHunter™ GPCR Arrestin and cAMP Hunter™ cell lines (DiscoveRx Corp., Fremont, CA) were used to assay G-protein-dependent signaling and β-arrestin recruitment to APJ. CHO-K1 cells stably expressing APJ (CHO-K1-APJ) or AT1 (CHO-K1-AT1) with β-arrestin/β-galactosidase enzyme fragment complementation constructs were maintained in HAM's F-12 medium (Hyclone, Logan, UT) supplemented with 10% FBS, 1X Penicillin-Streptomycin-Glutamine (Invitrogen; Carlsbad, CA), 300 μg/ml hygromycin (EMD Biosciences, San Diego, CA), and 800 μg/ml Geneticin (Cellgro, Manassas, VA). Primary Human Retinal Microvascular Endothelial Cells (HRECs) were purchased from Cell Systems (Kirkland, WA) and maintained in Complete Classic Medium with CultureBoost-R™ (Cell Systems). Parent CHO-K1 cells were obtained from ATCC and maintained in HAM’s F-12 medium supplemented with 10% FBS, and1X Penicillin-Streptomycin-Glutamine (Invitrogen; Carlsbad, CA). All cells were incubated at 37°C (5% CO2, 95% relative humidity) and maintained at less than 70% to 80% confluence (approximately 75,000 cells/cm^2). Cell heterologously expressing APJ or AT1 were not used after 10 passages. HRECs were not used in any experiments after five passages.
All reagents unless otherwise specified are components of the cAMP HitHunter (DiscoveRx) kit. Ligand Buffer + 60 μM Forskolin (Cayman Chemical, Ann Arbor, MI) was made fresh on the day of the experiment and used for the dilution of positive and negative controls as well as all peptides. CHO-K1-APJ cells were dispensed into a 1536-well tissue culture microplate (Corning, Corning, NY) using a Multidrop at a seeding density of 1,000 cells/well and returned to the incubator. The next day, the cell culture media was removed and replaced with 15 μl/well of assay buffer (1X HBSS, 10 mM HEPES) containing anti-cAMP antibody (DiscoveRx). […] Plates were incubated at room temperature in the dark for 3 hours prior to chemiluminescence detection on an EnVision (Perkin Elmer) using a counting time of 1 s/well.

A further data set in a line: PAMPA permeability. The class given is in vitro ADME.
Data set [2] is described as follows: Cytotoxicity, ATP-Lite, HRECs. It is filed as cell-based. The conditions noted are these: human, HREC cells; HRECs; read-out: Cytotoxicity LC50. As for the experimental part: as §1
For the next data set, the system named is HRECs. The data set is described as follows: Cytotoxicity, ATP-Lite, HRECs. The conditions noted are these: tested up to 100 μM. It is filed as cell-based. The procedure:
as §1

Data set [3] relates to choroidal neovascularization (CNV) lesions. The data set is described as follows: Laser-induced CNV mouse model. The class given is in vivo. The conditions noted are these: for CNV lesion volume vs vehicle control: two injections, choroidal flatmounts, 14 days post-laser.
The target in a further data set is T1, APJ (Homo sapiens, UniProt P35414).
T1 sequence (P35414 1-380): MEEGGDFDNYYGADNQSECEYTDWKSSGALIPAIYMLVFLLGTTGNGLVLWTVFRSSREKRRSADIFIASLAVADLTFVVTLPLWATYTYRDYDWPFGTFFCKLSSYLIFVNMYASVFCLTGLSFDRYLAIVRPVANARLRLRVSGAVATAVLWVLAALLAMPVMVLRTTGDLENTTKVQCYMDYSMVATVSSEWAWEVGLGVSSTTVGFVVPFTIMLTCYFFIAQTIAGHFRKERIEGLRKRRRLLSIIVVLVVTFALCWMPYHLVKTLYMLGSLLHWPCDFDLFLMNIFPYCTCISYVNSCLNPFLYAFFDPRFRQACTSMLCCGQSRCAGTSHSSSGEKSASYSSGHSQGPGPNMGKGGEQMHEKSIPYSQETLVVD
The data set is described as follows: APJ β-arrestin recruitment assay (PathHunter, CHO-K1-APJ). The class given is cell-based. The arrangement: β-galactosidase enzyme fragment (enzyme fragment complementation construct); host or cells: CHO-K1 (CHO-K1-APJ, PathHunter). As for the experimental part: as §2
CHO-K1 cells engineered to over-express APJ or AT1, and β-arrestin were removed from flasks using TrypLE Select (1X), no phenol red (Life Technologies, Grand Island, NY), centrifuged, and resuspended in CP2 Reagent (DiscoveRx, Fremont, CA). Cells were counted using a Countess Automated Cell Counter (Invitrogen, Carlsbad, CA) and 5,000 cells/well were plated in a 384-well tissue culture treated microplate (Corning, Corning, NY). All plates were incubated overnight at 37°C, 5% CO2 in a final volume of 25 μl/well. Following incubation, 5 μl of peptides (10-point concentrations) and controls prepared in ligand buffer (1X HBSS, 10 mM HEPES, 0.1% BSA) were added to cells and incubated at 37°C for 1.5 h. Using a Multidrop Combi Reagent Dispenser (Thermo Scientific), 12 μl of Detection Reagent (DiscoveRx) comprised of substrate and co-factors was added to all wells and incubated at room temperature in the dark for 1 h. Chemiluminescent signal was detected on an EnVision Multi-label plate reader (Perkin Elmer) using a counting time of 1 s/well. The robustness of data from each screening plate and run was monitored by Z’ and Signal Window calculation.

By IC50 is commonly meant the point on the concentration scale where inhibition reaches its midpoint. In the case of `CCN(CC)Cc1cc(Nc2ccnc3cc(Cl)ccc23)ccc1O` [AQ, amodiaquine], the IC50 at 48 h in data set [1] (ATP-lite assay, Fa2-N4 cells) was over 50 µM. The CC50 at 48 h in data set [1] (Fa2N-4 cells, read-out: Cytotoxicity LC50) was over 50 µM; in data set [2], over 100 µM. The IC50 in the data set with parental CHO-K1 cells is over 99 µM; against APJ (secondary assay, Ap13-mediated β-arrestin recruitment), over 99 µM. The Papp turned out to be 3 ×10⁻⁶ cm/s in “PAMPA permeability” (Donor pH 5.0, Acceptor pH 7.4, read-out: PAMPA permeability Pe); 9.6 ×10⁻⁶ cm/s in “PAMPA permeability” (Donor pH 6.2, Acceptor pH 7.4, read-out: PAMPA permeability Pe); 54 ×10⁻⁶ cm/s in the data set “PAMPA permeability” (pH 7.4, Donor pH 7.4, Acceptor pH 7.4, read-out: PAMPA permeability Pe). The “Cytotoxicity to HRECs” value in the data set on HRECs is “Neither ML221 nor AQ were significantly toxic”. Moreover, the “CNV lesion size by optical coherence tomography vs vehicle treated eyes” value in data set [3] (14 days post-laser injury, intravitreal AQ 5.0-50.0 μg) is on record as “significantly smaller”. The “CNV lesion volume vs vehicle control” value in data set [3] (AQ 5.0 μg intravitreal) is “not a statistically significant reduction”; in data set [3] (AQ 10.0 μg intravitreal) it was “not a statistically significant reduction”; in data set [3] (AQ 25.0 μg intravitreal), “statistically significant decrease”; in data set [3] (AQ 50.0 μg intravitreal) it was “an even greater decrease”. Also, the “CNV lesion size in confocal images of agglutinin-stained choroidal flatmounts” value in data set [3] (intravitreal AQ) is “reduction in CNV lesion size at 10μg AQ and higher”. Besides, the “Antagonism of Ap13-mediated recruitment of β-arrestin” value on APJ is reported as “neither AQ nor 1, 3, 4, 5, or 6 antagonized”.

The record behind these values is paper PMC6135396, “Repurposing antimalarial aminoquinolines and related compounds for treatment of retinal neovascularization” (PLoS ONE, 2018).
